The series is described as follows: Solubility of the salts in different solvents at different temperature (basis for the separation).

The record followed here is patent publication US8703965B2, “Preparation of saturated imidazolinium salts and related compounds” (Materia, Inc., priority 2007, dated 2014).

Excerpt: The principle to separate the two salts is the solubility in different solvents at different temperature.

In the case of `Br.CCN(C(C)C)C(C)C` [i-Pr2NEt—HBr], where the note is “Room Temperature”, the Solubility in acetone result is “soluble”, the Solubility in hexane result is recorded as “not soluble”, the Solubility in toluene entry is “not soluble” and the Solubility in water entry is reported as “very soluble”. Further, the Solubility in toluene result (100 C.) is recorded as “soluble”.
As to `Cc1cc(C)c(N2C=[N+](c3c(C)cc(C)cc3C)CC2)c(C)c1.[Br-]` [sIMes-HBr, 1,3-Dimesitylimidazolinium Bromide], under “Room Temperature”, the Solubility in acetone result is “slightly soluble”, the Solubility in hexane entry is reported as “not soluble”, the Solubility in toluene result was “not soluble” and the Solubility in water entry was “slightly soluble”.
